Data from ChEMBL document CHEMBL4665624, “Synthesis of 5-(4-(1H-phenanthro[9,10-d]imidazol-2-yl)benzylidene)thiazolidine-2,4-dione as promising DNA and serum albumin-binding agents and evaluation of antitumor activity” (Eur J Med Chem, 2019).

Columns and labels:
CCRF-CEM = test: Antitumor activity against human CCRF-CEM cells assessed as cell growth inhibition at 10 uM incubated for 48 hrs by sulforhodamine B assay; format: functional; conditions: read-out: GI
HL-60(TB) = test: Antitumor activity against human HL-60(TB) cells assessed as cell growth inhibition at 10 uM incubated for 48 hrs by sulforhodamine B assay; format: functional; conditions: read-out: GI
K562 = test: Antitumor activity against human K562 cells assessed as cell growth inhibition at 10 uM incubated for 48 hrs by sulforhodamine B assay; format: functional; conditions: read-out: GI
MOLT-4 = test: Antitumor activity against human MOLT4 cells assessed as cell growth inhibition at 10 uM incubated for 48 hrs by sulforhodamine B assay; format: functional; conditions: read-out: GI
RPMI-8226 = test: Antitumor activity against human RPMI8226 cells assessed as cell growth inhibition at 10 uM incubated for 48 hrs by sulforhodamine B assay; format: functional; conditions: read-out: GI
SR = test: Antitumor activity against human SR cells assessed as cell growth inhibition at 10 uM incubated for 48 hrs by sulforhodamine B assay; format: functional; conditions: read-out: GI
EKVX = test: Antitumor activity against human EKVX cells assessed as cell growth inhibition at 10 uM incubated for 48 hrs by sulforhodamine B assay; format: functional; conditions: read-out: GI
HOP-92 = test: Antitumor activity against human HOP92 cells assessed as cell growth inhibition at 10 uM incubated for 48 hrs by sulforhodamine B assay; format: functional; conditions: read-out: GI
NCI-H226 = test: Antitumor activity against human NCI-H226 assessed as cell growth inhibition at 10 uM incubated for 48 hrs by sulforhodamine B assay; format: functional; conditions: read-out: GI
NCI-H23 = test: Antitumor activity against human NCI-H23 cells assessed as cell growth inhibition at 10 uM incubated for 48 hrs by sulforhodamine B assay; format: functional; conditions: read-out: GI
NCI-H460 = test: Antitumor activity against human NCI-H460 assessed as cell growth inhibition at 10 uM incubated for 48 hrs by sulforhodamine B assay; format: functional; conditions: read-out: GI
NCI-H522 = test: Antitumor activity against human NCI-H522 cells assessed as cell growth inhibition at 10 uM incubated for 48 hrs by sulforhodamine B assay; format: functional; conditions: read-out: GI
COLO 205 = test: Antitumor activity against human COLO205 cells assessed as cell growth inhibition at 10 uM incubated for 48 hrs by sulforhodamine B assay; format: functional; conditions: read-out: GI
HCC 2998 = test: Antitumor activity against human HCC2998 cells assessed as cell growth inhibition at 10 uM incubated for 48 hrs by sulforhodamine B assay; format: functional; conditions: read-out: GI
HCT-116 = test: Antitumor activity against human HCT116 cells assessed as cell growth inhibition at 10 uM incubated for 48 hrs by sulforhodamine B assay; format: functional; conditions: read-out: GI
HCT-15 = test: Antitumor activity against human HCT15 cells assessed as cell growth inhibition at 10 uM incubated for 48 hrs by sulforhodamine B assay; format: functional; conditions: read-out: GI
HT-29 = test: Antitumor activity against human HT-29 cells assessed as cell growth inhibition at 10 uM incubated for 48 hrs by sulforhodamine B assay; format: functional; conditions: read-out: GI
KM12 = test: Antitumor activity against human KM12 cells assessed as cell growth inhibition at 10 uM incubated for 48 hrs by sulforhodamine B assay; format: functional; conditions: read-out: GI
SF-268 = test: Antitumor activity against human SF268 cells assessed as cell growth inhibition at 10 uM incubated for 48 hrs by sulforhodamine B assay; format: functional; conditions: read-out: GI
SF-295 = test: Antitumor activity against human SF295 cells assessed as cell growth inhibition at 10 uM incubated for 48 hrs by sulforhodamine B assay; format: functional; conditions: read-out: GI
SNB-19 = test: Antitumor activity against human SNB-19 cells assessed as cell growth inhibition at 10 uM incubated for 48 hrs by sulforhodamine B assay; format: functional; conditions: read-out: GI
SNB-75 = test: Antitumor activity against human SNB-75 cells assessed as cell growth inhibition at 10 uM incubated for 48 hrs by sulforhodamine B assay; format: functional; conditions: read-out: GI
U-251 = test: Antitumor activity against human U251 cells assessed as cell growth inhibition at 10 uM incubated for 48 hrs by sulforhodamine B assay; format: functional; conditions: read-out: GI
LOX IMVI = test: Antitumor activity against human LOX IMVI cells assessed as cell growth inhibition at 10 uM incubated for 48 hrs by sulforhodamine B assay; format: functional; conditions: read-out: GI
Malme-3M = test: Antitumor activity against human MALME-3M cells assessed as cell growth inhibition at 10 uM incubated for 48 hrs by sulforhodamine B assay; format: functional; conditions: read-out: GI
M14 = test: Antitumor activity against human M14 cells assessed as cell growth inhibition at 10 uM incubated for 48 hrs by sulforhodamine B assay; format: functional; conditions: read-out: GI
MDA-MB-435 = test: Antitumor activity against human MDA-MB-435 cells assessed as cell growth inhibition at 10 uM incubated for 48 hrs by sulforhodamine B assay; format: functional; conditions: read-out: GI
SK-MEL-28 = test: Antitumor activity against human SK-MEL-28 cells assessed as cell growth inhibition at 10 uM incubated for 48 hrs by sulforhodamine B assay; format: functional; conditions: read-out: GI
UACC-62 = test: Antitumor activity against human UACC-62 cells assessed as cell growth inhibition at 10 uM incubated for 48 hrs by sulforhodamine B assay; format: functional; conditions: read-out: GI
IGROV-1 = test: Antitumor activity against human IGROV1 cells assessed as cell growth inhibition at 10 uM incubated for 48 hrs by sulforhodamine B assay; format: functional; conditions: read-out: GI
OVCAR-3 = test: Antitumor activity against human OVCAR-3 cells assessed as cell growth inhibition at 10 uM incubated for 48 hrs by sulforhodamine B assay; format: functional; conditions: read-out: GI
OVCAR-4 = test: Antitumor activity against human OVCAR-4 cells assessed as cell growth inhibition at 10 uM incubated for 48 hrs by sulforhodamine B assay; format: functional; conditions: read-out: GI
OVCAR-8 = test: Antitumor activity against human OVCAR-8 cells assessed as cell growth inhibition at 10 uM incubated for 48 hrs by sulforhodamine B assay; format: functional; conditions: read-out: GI
NCI/ADR-RES = test: Antitumor activity against human NCI/ADR-RES cells assessed as cell growth inhibition at 10 uM incubated for 48 hrs by sulforhodamine B assay; format: functional; conditions: read-out: GI
SK-OV-3 = test: Antitumor activity against human SK-OV-3 cells assessed as cell growth inhibition at 10 uM incubated for 48 hrs by sulforhodamine B assay; format: functional; conditions: read-out: GI
786-0 = test: Antitumor activity against human 786-0 cells assessed as cell growth inhibition at 10 uM incubated for 48 hrs by sulforhodamine B assay; format: functional; conditions: read-out: GI
A498 = test: Antitumor activity against human A498 cells assessed as cell growth inhibition at 10 uM incubated for 48 hrs by sulforhodamine B assay; format: functional; conditions: read-out: GI
ACHN = test: Antitumor activity against human ACHN cells assessed as cell growth inhibition at 10 uM incubated for 48 hrs by sulforhodamine B assay; format: functional; conditions: read-out: GI
RXF 393 = test: Antitumor activity against human RXF 393 cells assessed as cell growth inhibition at 10 uM incubated for 48 hrs by sulforhodamine B assay; format: functional; conditions: read-out: GI
SN12C = test: Antitumor activity against human SN12C cells assessed as cell growth inhibition at 10 uM incubated for 48 hrs by sulforhodamine B assay; format: functional; conditions: read-out: GI
UO-31 = test: Antitumor activity against human UO-31 cells assessed as cell growth inhibition at 10 uM incubated for 48 hrs by sulforhodamine B assay; format: functional; conditions: read-out: GI
PC-3 = test: Antitumor activity against human PC-3 cells assessed as cell growth inhibition at 10 uM incubated for 48 hrs by sulforhodamine B assay; format: functional; conditions: read-out: GI
MCF7 = test: Antitumor activity against human MCF7 cells assessed as cell growth inhibition at 10 uM incubated for 48 hrs by sulforhodamine B assay; format: functional; conditions: read-out: GI
MDA-MB-231 = test: Antitumor activity against human MDA-MB-231/ATCC cells assessed as cell growth inhibition at 10 uM incubated for 48 hrs by sulforhodamine B assay; format: functional; conditions: read-out: GI
Hs-578T = test: Antitumor activity against human HS 578T cells assessed as cell growth inhibition at 10 uM incubated for 48 hrs by sulforhodamine B assay; format: functional; conditions: read-out: GI
BT-549 = test: Antitumor activity against human BT-549 cells assessed as cell growth inhibition at 10 uM incubated for 48 hrs by sulforhodamine B assay; format: functional; conditions: read-out: GI
MDA-MB-468 = test: Antitumor activity against human MDA-MB-468 cells assessed as cell growth inhibition at 10 uM incubated for 48 hrs by sulforhodamine B assay; format: functional; conditions: read-out: GI
SW-620 = test: Antitumor activity against human SW620 cells assessed as cell growth inhibition at 10 uM incubated for 48 hrs by sulforhodamine B assay; conditions: SW-620, 48 h, read-out: GI

Structure (SMILES): Oc1ccccc1-c1nc2c3ccccc3c3ccccc3c2[nH]1
- inhibition of growth at 10 µM (CCRF-CEM): < 10%
- inhibition of growth at 10 µM (HL-60(TB)): < 10%
- inhibition of growth at 10 µM (K562): 12.1%
- inhibition of growth at 10 µM (MOLT-4): < 10%
- inhibition of growth at 10 µM (RPMI-8226): 13.3%
- inhibition of growth at 10 µM (SR): 10.8%
- inhibition of growth at 10 µM (EKVX): 19.4%
- inhibition of growth at 10 µM (HOP-92): 16.4%
- inhibition of growth at 10 µM (NCI-H226): 11.6%
- inhibition of growth at 10 µM (NCI-H23): 10.7%
- inhibition of growth at 10 µM (NCI-H460): < 10%
- inhibition of growth at 10 µM (NCI-H522): < 10%
- inhibition of growth at 10 µM (COLO 205): < 10%
- inhibition of growth at 10 µM (HCC 2998): < 10%
- inhibition of growth at 10 µM (HCT-116): 12.3%
- inhibition of growth at 10 µM (HCT-15): < 10%
- inhibition of growth at 10 µM (HT-29): < 10%
- inhibition of growth at 10 µM (KM12): < 10%
- inhibition of growth at 10 µM (SF-268): < 10%
- inhibition of growth at 10 µM (SF-295): < 10%
- inhibition of growth at 10 µM (SNB-19): < 10%
- inhibition of growth at 10 µM (SNB-75): 11.1%
- inhibition of growth at 10 µM (U-251): < 10%
- inhibition of growth at 10 µM (LOX IMVI): < 10%
- inhibition of growth at 10 µM (Malme-3M): < 10%
- inhibition of growth at 10 µM (M14): < 10%
- inhibition of growth at 10 µM (MDA-MB-435): < 10%
- inhibition of growth at 10 µM (SK-MEL-28): < 10%
- inhibition of growth at 10 µM (UACC-62): 10.1%
- inhibition of growth at 10 µM (IGROV-1): 23.5%
- inhibition of growth at 10 µM (OVCAR-3): < 10%
- inhibition of growth at 10 µM (OVCAR-4): < 10%
- inhibition of growth at 10 µM (OVCAR-8): < 10%
- inhibition of growth at 10 µM (NCI/ADR-RES): < 10%
- inhibition of growth at 10 µM (SK-OV-3): < 10%
- inhibition of growth at 10 µM (786-0): < 10%
- inhibition of growth at 10 µM (A498): < 10%
- inhibition of growth at 10 µM (ACHN): 11.7%
- inhibition of growth at 10 µM (RXF 393): < 10%
- inhibition of growth at 10 µM (SN12C): 24.4%
- inhibition of growth at 10 µM (UO-31): 37.9%
- inhibition of growth at 10 µM (PC-3): 11.8%
- inhibition of growth at 10 µM (MCF7): 26.3%
- inhibition of growth at 10 µM (MDA-MB-231): 23.8%
- inhibition of growth at 10 µM (Hs-578T): < 10%
- inhibition of growth at 10 µM (BT-549): < 10%
- inhibition of growth at 10 µM (MDA-MB-468): < 10%
- inhibition of growth at 10 µM (SW-620): < 10%
